Measured values as given in patent US8293738B2, “Indazole inhibitors of kinase” (Abbott Laboratories, priority 2010, dated 2012).

Columns and labels:
Aurora B = target: T1, Aurora B (Homo sapiens, UniProt Q96GD4); test: Aurora B enzyme assay (time-resolved fluorescence, histone H3 peptide); assay type: biochemical; conditions: 1 mM ATP, 1 hour
T1 construct: Active Aurora B enzyme (recombinant residues 1-344)
Protocol: To determine Aurora B activity of representative compounds of the invention, Active Aurora B enzyme (recombinant residues 1-344) and INCENP (recombinant GST fusion protein (Upstate)) were incubated in wells of a 384 well plate with biotinylted histone H3 peptide residues 1-21 (Upstate), 1 mM ATP, and various concentrations of inhibitors in a HEPES buffer, pH 7.4 containing MgCl2, sodium othrovanadate, and Triton X-100. After 1 hour, the reaction was stopped with EDTA and anti-phospho-histone H3 Europium Cryptate (Cis-Bio) and SA-APC (Phycolink, Prozyme) were added to detect the phosphopeptide. The amount of phosphorylation was determined by the time-resolved fluorescence ratio of signals at 665 nm and 615 nm. The IC50's were calculated by an exponential fit of the inhibition values with the inhibitor concentrations using Assay Explorer software.

Aurora A = target: T2, Aurora A (Homo sapiens, UniProt O14965); test: Aurora A enzyme assay (time-resolved fluorescence, STK substrate-2); assay type: biochemical; conditions: 1 mM ATP, 1 hour
T2 sequence (O14965 1-403): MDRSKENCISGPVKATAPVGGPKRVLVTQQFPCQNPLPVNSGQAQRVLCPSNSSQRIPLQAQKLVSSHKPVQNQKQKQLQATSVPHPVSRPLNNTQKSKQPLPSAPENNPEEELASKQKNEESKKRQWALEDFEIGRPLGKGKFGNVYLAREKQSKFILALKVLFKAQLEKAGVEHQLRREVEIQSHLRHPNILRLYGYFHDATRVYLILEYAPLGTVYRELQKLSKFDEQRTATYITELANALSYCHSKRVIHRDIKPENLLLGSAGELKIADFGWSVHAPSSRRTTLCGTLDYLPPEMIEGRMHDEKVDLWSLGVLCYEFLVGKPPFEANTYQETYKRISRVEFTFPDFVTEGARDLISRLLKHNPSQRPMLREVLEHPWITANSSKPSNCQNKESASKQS
Protocol: To determine Aurora A and C activity of representative compounds of the invention, Active Aurora A or C enzyme was incubated in wells of a 384 well plate with biotinylated STK substrate-2 (Upstate), 1 mM ATP, and various concentrations of inhibitors in a Hepes buffer, pH 7.4 containing MgCl2, sodium othrovanadate, and Triton X-100. After 1 hour, the reaction was stopped with EDTA and anti-phospho-STK antibody Europium Cryptate (Upstate) and SA-XL665 (Upstate) were added to detect the phosphopeptide. The amount of phosphorylation was determined by the time-resolved fluorescence ratio of signals at 665 nm and 615 nm. The IC50s were calculated by an exponential fit of the inhibition values with the inhibitor concentrations using Assay Explorer software.

KDR [1] = target: T3, KDR (Homo sapiens, UniProt P35968); test: KDR cell assay; assay type: cell-based
Target sequence in this assay (P35968 20-1356, species assumed): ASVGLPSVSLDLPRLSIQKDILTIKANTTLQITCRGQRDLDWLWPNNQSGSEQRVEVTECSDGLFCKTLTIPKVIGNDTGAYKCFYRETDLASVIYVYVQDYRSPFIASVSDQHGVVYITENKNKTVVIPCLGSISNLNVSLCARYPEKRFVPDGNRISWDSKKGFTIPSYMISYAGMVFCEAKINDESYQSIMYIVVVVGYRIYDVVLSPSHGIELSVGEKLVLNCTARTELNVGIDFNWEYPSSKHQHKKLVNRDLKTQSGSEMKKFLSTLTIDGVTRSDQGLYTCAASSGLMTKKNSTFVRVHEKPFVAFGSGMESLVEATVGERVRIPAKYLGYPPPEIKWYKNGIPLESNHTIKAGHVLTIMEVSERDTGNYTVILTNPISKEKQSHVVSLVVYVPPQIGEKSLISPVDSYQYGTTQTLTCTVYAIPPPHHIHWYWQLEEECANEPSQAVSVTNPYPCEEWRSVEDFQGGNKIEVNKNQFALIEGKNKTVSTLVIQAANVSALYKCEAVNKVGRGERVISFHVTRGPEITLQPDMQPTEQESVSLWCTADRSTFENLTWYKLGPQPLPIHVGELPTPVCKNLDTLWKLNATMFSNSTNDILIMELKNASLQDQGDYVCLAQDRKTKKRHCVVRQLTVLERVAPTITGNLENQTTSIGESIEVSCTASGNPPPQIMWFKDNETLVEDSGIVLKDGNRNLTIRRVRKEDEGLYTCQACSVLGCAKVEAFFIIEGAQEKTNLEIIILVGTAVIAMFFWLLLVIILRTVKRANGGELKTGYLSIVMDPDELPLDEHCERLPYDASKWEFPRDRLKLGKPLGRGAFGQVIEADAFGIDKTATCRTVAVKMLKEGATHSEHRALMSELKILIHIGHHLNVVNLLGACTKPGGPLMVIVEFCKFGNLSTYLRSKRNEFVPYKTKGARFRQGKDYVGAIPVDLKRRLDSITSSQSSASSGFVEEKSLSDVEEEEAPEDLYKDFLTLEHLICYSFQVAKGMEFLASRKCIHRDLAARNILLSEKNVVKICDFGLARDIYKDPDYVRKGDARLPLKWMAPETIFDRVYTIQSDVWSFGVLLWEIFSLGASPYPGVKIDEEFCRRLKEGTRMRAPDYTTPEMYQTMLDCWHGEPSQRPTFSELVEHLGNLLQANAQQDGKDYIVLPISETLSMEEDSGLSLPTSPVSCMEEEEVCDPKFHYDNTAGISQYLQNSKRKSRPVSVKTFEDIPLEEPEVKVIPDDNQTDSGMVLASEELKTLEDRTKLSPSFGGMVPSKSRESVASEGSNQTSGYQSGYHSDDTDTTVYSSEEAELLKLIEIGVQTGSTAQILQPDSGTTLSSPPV

[2] = tested on: H1299 cells (Human Non-Small Cell Lung Carcinoma); test: Induction of polyploidy in H1299 cells, high content analysis; assay type: cell-based; conditions: NCI-H1299 cells, 48 hours, polyploid = nuclear area >750μ2, read-out: Polyploid HCA IC50
Protocol: To determine the induction of polyploidy in H1299 cells (Human Non-Small Cell Lung Carcinoma), NCI-H1299 were seeded (4K/well) into 96-well culture plates (tissue culture grade, black, flat-clear bottom) and incubated overnight to produce cell-to-plate adherance Inhibitors at varying concentrations were added into duplicate wells containing cells and culture media (RPMI 1640, 10% fetal calf serum) and incubated at 37 C for 48 hours. The plates were then washed with PBS and the adherent cells fixed by incubating with 3% formalin for 1 hour. After washing four times with PBS, the cells were then stained with Hoechst and subjected to fluorescent (3601/460e) microscopic high content analysis to determine the effect of inhibitors on nuclear size. Polyploid cells (>4N) were defined as those having nuclear area >750μ2. […]

KDR [3] = target: T3, KDR; test: KDR HTRF in vitro kinase assay; assay type: biochemical; design: purified enzyme (His6-KDR 789-1354, MW 63 kD); conditions: 1 mM ATP, 60 minutes
Protocol: To determine the activity of the various kinases, a homogenous time-resolved fluorescence (HTRF) in vitro kinase assay was used. (Mathis, G., HTRF(R) Technology. J Biomol Screen, 1999. 4(6): p. 309-314; Alfred J. Kolb, Paul V. Kaplita, David J. Hayes, Young-Whan Park, Christine Pernell, John S. Major and Gerard Mathis, Drug Discovery Today, 1998, 3, 333-342.)
For example for KDR, 7 ng/well of purified enzyme (His6-KDR 789-1354, MW 63 kD) was mixed with 0.5 μM N-biotinylated substrate (Biotin-Ahx-AEEEYFFLA-amide (SEQ. ID. 1)), various concentrations of inhibitor in reaction buffer (50 mM HEPES, pH 7.1, mM MgCl2, 2 mM MnCl2, 0.1% BSA and 1 mM DTT, […] final volume), ATP (1 mM final conc.) in a black 384-well plate. After 60 minutes incubation at room temperature, the reaction was quenched by addition of a buffered EDTA solution (final approximate concentrations: 30 mM EDTA, 0.1% BSA, 0.1% Triton X-100 and 0.24M KF) and a solution of revelation agents (to give 0.084 ng/well streptavidin-XL-665 (Cis-Bio) and 6.5 ng/well antiphsophotyrosine mAb PT66-K Europium kryptate) was added to the reaction mixture. The quenched reaction was allowed to stand at room temperature for 3 hours and was then read in a time-resolved fluorescence detector (InVision, Perkin-Elmer) at 620 nm and 665 nm sequentially with excitation. The ratio between the signal of 620 nm and 665 nm was used in the calculation of the IC50.
Target sequence in this assay (P35968 789-1354): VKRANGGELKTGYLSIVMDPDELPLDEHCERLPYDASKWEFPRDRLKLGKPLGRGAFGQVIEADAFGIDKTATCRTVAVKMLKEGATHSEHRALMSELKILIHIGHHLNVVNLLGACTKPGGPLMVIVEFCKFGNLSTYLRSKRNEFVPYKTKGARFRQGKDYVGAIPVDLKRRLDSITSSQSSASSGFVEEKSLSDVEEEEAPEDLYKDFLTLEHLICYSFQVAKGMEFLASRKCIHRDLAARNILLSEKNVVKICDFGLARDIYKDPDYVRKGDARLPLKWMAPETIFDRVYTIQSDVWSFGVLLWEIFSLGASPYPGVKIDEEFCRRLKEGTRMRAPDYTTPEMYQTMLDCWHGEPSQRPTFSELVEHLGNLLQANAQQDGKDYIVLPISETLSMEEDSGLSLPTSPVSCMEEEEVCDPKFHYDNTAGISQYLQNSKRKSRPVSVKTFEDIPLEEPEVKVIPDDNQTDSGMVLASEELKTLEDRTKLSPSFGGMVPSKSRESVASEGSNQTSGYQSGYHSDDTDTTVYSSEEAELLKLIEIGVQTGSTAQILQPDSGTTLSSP

T1 sequence (Q96GD4 whole entry, the tested form may be a part): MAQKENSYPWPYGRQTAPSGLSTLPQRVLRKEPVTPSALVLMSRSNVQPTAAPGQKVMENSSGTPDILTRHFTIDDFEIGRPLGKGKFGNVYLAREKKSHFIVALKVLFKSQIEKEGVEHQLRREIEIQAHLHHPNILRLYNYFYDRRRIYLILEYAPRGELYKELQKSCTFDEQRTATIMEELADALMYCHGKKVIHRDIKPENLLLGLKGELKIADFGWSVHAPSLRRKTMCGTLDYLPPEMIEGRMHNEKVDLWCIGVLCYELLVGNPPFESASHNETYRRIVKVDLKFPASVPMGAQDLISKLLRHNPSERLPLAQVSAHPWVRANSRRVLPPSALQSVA
T1 sequence (Q9NQS7 826-918 partner limits assumed): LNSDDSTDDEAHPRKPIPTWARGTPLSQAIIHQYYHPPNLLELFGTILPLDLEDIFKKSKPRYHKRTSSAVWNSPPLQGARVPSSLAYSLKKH

SMILES	IC50 (Aurora B) [nM]	IC50 (Aurora A) [nM]	IC50 (KDR [1]) [nM]	IC50 [2] [nM]	IC50 (KDR [3]) [nM]
Cn1cc(-c2n[nH]c3cc(-c4ccc(NC(=O)Nc5cccc(F)c5)cc4)ccc23)cn1 [Example 1, N-(3-fluorophenyl)-N′-{4-[3-(1-methyl-1H-pyrazol-4-yl)-1H-indazol-6-yl]phenyl}urea]	19.2	371	87.1	1	54.9
Cc1cccc(NC(=O)Nc2ccc(-c3ccc4c(-c5cnn(C)c5)n[nH]c4c3)cc2)c1 [Example 2, N-(3-methylphenyl)-N′-{4-[3-(1-methyl-1H-pyrazol-4-yl)-1H-indazol-6-yl]phenyl}urea]	17	> 12500	46	6	27.4
Cc1cccc(NC(=O)Nc2ccc(-c3ccc4c(-c5cnn[nH]5)n[nH]c4c3)cc2)c1 [Example 3, N-(3-methylphenyl)-N′-{4-[3-(1H-1,2,3-triazol-5-yl)-1H-indazol-6-yl]phenyl}urea]	40.5	2490	316	35	45
O=C(Nc1ccc(-c2ccc3c(-c4cnn(CCN5CCOCC5)c4)n[nH]c3c2)cc1)Nc1cccc(F)c1 [Example 6, N-(3-fluorophenyl)-N′-(4-{3-[1-(2-morpholin-4-ylethyl)-1H-pyrazol-4-yl]-1H-indazol-6-yl}phenyl)urea]	21.2	1000	187	18	86.1
O=C(Nc1ccc(-c2ccc3c(-c4cn[nH]c4)n[nH]c3c2)cc1)Nc1cccc(F)c1 [Example 9, N-(3-fluorophenyl)-N′-{4-[3-(1H-pyrazol-4-yl)-1H-indazol-6-yl]phenyl}urea]	32.7	221	300	14	76.3
O=C(Nc1ccc(-c2ccc3c(-c4cnn(CCO)c4)n[nH]c3c2)cc1)Nc1cccc(F)c1 [Example 10, N-(3-fluorophenyl)-N′-(4-{3-[1-(2-hydroxyethyl)-1H-pyrazol-4-yl]-1H-indazol-6-yl}phenyl)urea]	23.6	294	206	43	51.1
Cc1cccc(NC(=O)Nc2ccc(-c3ccc4c(-c5cnn(CCO)c5)n[nH]c4c3)cc2)c1 [Example 12, N-(4-{3-[1-(2-hydroxyethyl)-1H-pyrazol-4-yl]-1H-indazol-6-yl}phenyl)-N′-(3-methylphenyl)urea]	44.1	> 12500	176	55	60
O=C(Nc1ccc(-c2ccc3c(-c4cnn(C5CCNCC5)c4)n[nH]c3c2)cc1)Nc1cccc(F)c1 [Example 16, N-(3-fluorophenyl)-N′-{4-[3-(1-piperidin-4-yl-1H-pyrazol-4-yl)-1H-indazol-6-yl]phenyl}urea]	10.9	> 12500	135	216	44.6
Cn1cc(-c2n[nH]c3cc(-c4ccc(NC(=O)Nc5ccc(C(F)(F)F)cc5)cc4)ccc23)cn1 [Example 19, N-{4-[3-(1-methyl-1H-pyrazol-4-yl)-1H-indazol-6-yl]phenyl}-N′-[4-(trifluoromethyl)phenyl]urea]	108	10800	216		45.1
Cn1cc(-c2n[nH]c3cc(-c4ccc(NC(=O)Nc5ccc(Cl)cc5)cc4)ccc23)cn1 [Example 20, N-(4-chlorophenyl)-N′-{4-[3-(1-methyl-1H-pyrazol-4-yl)-1H-indazol-6-yl]phenyl}urea]	24.7	> 12500		< 1	122
O=C(Nc1ccc(-c2ccc3c(-c4cnn[nH]4)n[nH]c3c2)cc1)Nc1cccc(F)c1 [Example 21, N-(3-fluorophenyl)-N′-{4-[3-(1H-1,2,3-triazol-5-yl)-1H-indazol-6-yl]phenyl}urea]	58.3	10200		128	154
Cn1cc(-c2n[nH]c3cc(-c4ccc(NC(=O)Nc5cccc(Cl)c5)cc4)ccc23)cn1 [Example 22, N-(3-chlorophenyl)-N′-{4-[3-(1-methyl-1H-pyrazol-4-yl)-1H-indazol-6-yl]phenyl}urea]	32.5	267	47.5	1	14.8
Cn1cc(-c2n[nH]c3cc(-c4ccc(NC(=O)Nc5ccccc5Cl)cc4)ccc23)cn1 [Example 23, N-(2-chlorophenyl)-N′-{4-[3-(1-methyl-1H-pyrazol-4-yl)-1H-indazol-6-yl]phenyl}urea]	24.9	246	355	10	80.7
Cn1cc(-c2n[nH]c3cc(-c4ccc(NC(=O)Nc5ccccc5C(F)(F)F)cc4)ccc23)cn1 [Example 26, N-{4-[3-(1-methyl-1H-pyrazol-4-yl)-1H-indazol-6-yl]phenyl}-N′-[2-(trifluoromethyl)phenyl]urea]	62.3	> 12500		13	325
Cn1cc(-c2n[nH]c3cc(-c4cccc(CNC(=O)Nc5cccc(F)c5)c4)ccc23)cn1 [Example 29, N-(3-fluorophenyl)-N′-{3-[3-(1-methyl-1H-pyrazol-4-yl)-1H-indazol-6-yl]benzyl}urea]	25	3340		113	137
Cc1cc(NC(=O)Nc2ccc(-c3ccc4c(-c5cnn(C)c5)n[nH]c4c3)cc2)no1 [Example 30, N-(5-methylisoxazol-3-yl)-N′-{4-[3-(1-methyl-1H-pyrazol-4-yl)-1H-indazol-6-yl]phenyl}urea]	10.3	299	123	1	32.2
